We go through ten compounds from ChEMBL document CHEMBL1201862, “PubChem BioAssay data set” (2004).

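Assay format: 96-well plates, 48-hour exposure. At the GI50, growth is halved.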 Activity calls are given as the source filed them. Cut-off read from the data, not from the text of the source: active = GI50 up to about 1.1 µM and inactive = higher.

Among the test systems are 786-0; HCT-116; SW-620; SN12C; HT-29; NCI-H522; ACHN; MCF7; SF-268; NCI/ADR-RES; COLO 205; MOLT-4; HL-60; MDA-MB-231; EKVX; LOX IMVI; IGROV-1; A549; UO-31; CCRF-CEM.
Assay in all cases: inhibition of tumour cell growth, NCI panel, 48 h

Consider `C/C(=N\Nc1cc(CN2CCCC2)c(-c2ccc(Cl)cc2)nn1)C(=O)O`, for which the GI50 in the test with 786-0, in the test on HCT-116, in the test with SW-620, in the test with SN12C, in the test with HT-29 and with NCI-H522 was > 100 µM (inactive) each time. The GI50 in the test on ACHN, with MCF7, in the test with SF-268, in the test on NCI/ADR-RES, in the test with COLO 205 and in the test with MOLT-4 was > 100 µM (inactive) each time. Also, the GI50 with HL-60, in the test with MDA-MB-231, in the test on EKVX, in the test on LOX IMVI, in the test with IGROV-1 and in the test with A549 was > 100 µM (inactive) each time. The GI50 in the test on UO-31 and in the test with CCRF-CEM was > 100 µM (inactive) in each case.

Consider `O=C(O)c1cc(/N=C/c2ccccc2O)cc(C(=O)O)c1`, for which the GI50 in the test on 786-0, with HCT-116, in the test on SW-620, in the test on SN12C, with HT-29 and in the test with NCI-H522 was > 100 µM (inactive) throughout. Moreover, the GI50 in the test on ACHN was > 100 µM (inactive); in the test on MCF7, > 100 µM (inactive); in the test on SF-268, > 100 µM (inactive); in the test on NCI/ADR-RES it was > 100 µM (inactive); with COLO 205, > 100 µM (inactive); in the test with MOLT-4 it was 86.9 µM (inactive). Also, the GI50 in the test on HL-60, in the test on MDA-MB-231, with EKVX, in the test with LOX IMVI, in the test with IGROV-1 and in the test on A549 was > 100 µM (inactive) throughout. The GI50 in the test with UO-31 and with CCRF-CEM was > 100 µM (inactive) each time.

Turning to `c1ccc(COC[C@H]2C3OCC([C@H](OCc4ccccc4)[C@H]3OCc3ccccc3)N2Cc2ccccc2)cc1` (stereo not given in full), the GI50 was > 50.1 µM (inactive) with 786-0; 23.5 µM (inactive) in the test with HCT-116; > 57 µM (inactive) in the test with SW-620; > 49 µM (inactive) in the test on SN12C; 46.6 µM (inactive) in the test with HT-29; 13.9 µM (inactive) in the test on NCI-H522. For the same compound, the GI50 in the test on ACHN is > 56.2 µM (inactive); in the test with MCF7, > 56 µM (inactive); in the test with SF-268 it was > 54.3 µM (inactive); with NCI/ADR-RES, > 47.8 µM (inactive); in the test on COLO 205, > 57 µM (inactive); with MOLT-4 it was 6.44 µM (inactive). Moreover, the GI50 in the test with HL-60 was 8.41 µM (inactive); in the test on MDA-MB-231, > 49.2 µM (inactive); with EKVX, > 46.7 µM (inactive); in the test with LOX IMVI, > 50.6 µM (inactive); with IGROV-1, 43 µM (inactive); in the test on A549, > 54.2 µM (inactive). Also, the values for the GI50 in the test with UO-31 and in the test on CCRF-CEM were > 46.1 µM (inactive) and 27.1 µM (inactive), respectively.

Turning to `O=C(/C=C/c1ccccc1)CCN1CCCCC1`, the GI50 with 786-0 is 20.5 µM (inactive); in the test on HCT-116, 17.4 µM (inactive); in the test with SW-620, 18.8 µM (inactive); in the test on SN12C, 20.3 µM (inactive); in the test with HT-29 it was 19.7 µM (inactive); in the test on NCI-H522, 21.4 µM (inactive). In addition, the GI50 in the test with ACHN is 84.7 µM (inactive); with MCF7, 27.4 µM (inactive); with SF-268, 42.5 µM (inactive); in the test with NCI/ADR-RES, 38.8 µM (inactive); in the test with COLO 205, 18 µM (inactive); in the test on MOLT-4 it was 24.1 µM (inactive). Also, the GI50 with HL-60 is 29.4 µM (inactive); with MDA-MB-231, 26 µM (inactive); with EKVX, > 100 µM (inactive); with LOX IMVI it was 17.5 µM (inactive); with IGROV-1, 43.1 µM (inactive); with A549 it was 54.1 µM (inactive). Also, the GI50 in the test with UO-31 is 34.9 µM (inactive); in the test with CCRF-CEM it was 39.4 µM (inactive).

`NNC(=O)CCC(NS(=O)(=O)c1ccc(Cl)cc1)C(=O)NN` (stereo not given): the GI50 with 786-0, in the test with HCT-116, with SW-620, in the test on SN12C, in the test with HT-29 and in the test with NCI-H522 was > 100 µM (inactive) throughout. Moreover, the GI50 in the test on ACHN, in the test with MCF7, in the test with SF-268, in the test on NCI/ADR-RES, in the test with COLO 205 and with MOLT-4 was > 100 µM (inactive) throughout. Besides, the GI50 with HL-60, in the test with MDA-MB-231, with EKVX, in the test on LOX IMVI, in the test on IGROV-1 and in the test on A549 was > 100 µM (inactive) in each case. For the same compound, the GI50 in the test with UO-31 and in the test with CCRF-CEM was > 100 µM (inactive) in each case.

In the case of `CCOC(=O)C1C(c2ccco2)C2(C#N)C(=N)OC1(C)C2(C#N)C#N` (stereo not given), the GI50 in the test on 786-0, in the test with HCT-116, in the test with SW-620, in the test on SN12C, in the test on HT-29 and in the test on NCI-H522 was > 100 µM (inactive) in each case. Besides, the GI50 in the test on ACHN, in the test on MCF7, in the test with SF-268, in the test with NCI/ADR-RES, with COLO 205 and in the test with MOLT-4 was > 100 µM (inactive) throughout. The GI50 with HL-60 was > 10 µM (inactive); in the test on MDA-MB-231, > 100 µM (inactive); in the test on EKVX, > 100 µM (inactive); with LOX IMVI it was > 100 µM (inactive); in the test on IGROV-1, > 100 µM (inactive); with A549, > 100 µM (inactive). Also, the GI50 in the test with UO-31 and in the test with CCRF-CEM was > 100 µM (inactive) throughout.

As to `COc1c(-c2ccc(F)cc2)oc2cc(O)cc(O)c2c1=O`, the GI50 was 32.8 µM (inactive) with 786-0; 30.5 µM (inactive) in the test on HCT-116; 43 µM (inactive) with SW-620; 30.3 µM (inactive) in the test on SN12C; 22.7 µM (inactive) with HT-29; 20.5 µM (inactive) in the test with NCI-H522. The GI50 in the test on ACHN is 30.7 µM (inactive); in the test on MCF7, 33.7 µM (inactive); in the test with SF-268, 40 µM (inactive); in the test with NCI/ADR-RES, 25.9 µM (inactive); with COLO 205, 20.9 µM (inactive); in the test with MOLT-4, 24.2 µM (inactive). In addition, the GI50 in the test on HL-60 is 30.9 µM (inactive); with MDA-MB-231, 20 µM (inactive); with EKVX, 14.6 µM (inactive); with LOX IMVI, 21.8 µM (inactive); in the test on IGROV-1, 21.4 µM (inactive); in the test with A549 it was 31 µM (inactive). The GI50 in the test with UO-31 is 16.6 µM (inactive); with CCRF-CEM it was 29.4 µM (inactive).

With `Cn1cccc1-c1ccc(-c2ccc(CO)[se]2)[se]1`, the GI50 was 14.2 µM (inactive) with 786-0; 6.34 µM (inactive) in the test on HCT-116; 2.15 µM (inactive) with SW-620; 68.9 µM (inactive) with SN12C; 12.6 µM (inactive) in the test with HT-29; 10.2 µM (inactive) with NCI-H522. Moreover, the GI50 was 38.9 µM (inactive) with ACHN; 0.906 µM (active) with MCF7; 44.7 µM (inactive) in the test with SF-268; 22.8 µM (inactive) in the test with NCI/ADR-RES; 11.4 µM (inactive) in the test on COLO 205; 8.79 µM (inactive) in the test with MOLT-4. For the same compound, the GI50 in the test with HL-60 was 7.35 µM (inactive); in the test on MDA-MB-231, 29.8 µM (inactive); with EKVX it was 61.1 µM (inactive); in the test with LOX IMVI, 19.1 µM (inactive); with IGROV-1, 0.582 µM (active); in the test on A549 it was 15.2 µM (inactive). Also, the GI50 with UO-31 was 35.7 µM (inactive); with CCRF-CEM, 11.5 µM (inactive).

Consider `COc1c(Cl)cc(NC(=S)C#N)cc1Cl`, for which the GI50 in the test with 786-0 was 28.3 µM (inactive); in the test with HCT-116, 16.4 µM (inactive); in the test on SW-620, 31.3 µM (inactive); in the test with SN12C, 20.1 µM (inactive); in the test with HT-29 it was 22.8 µM (inactive); in the test with NCI-H522 it was 19.4 µM (inactive). In addition, the GI50 in the test with ACHN is 25.6 µM (inactive); with MCF7, 24.4 µM (inactive); in the test on SF-268 it was 31.2 µM (inactive); in the test on NCI/ADR-RES it was 22.1 µM (inactive); with COLO 205, 17.8 µM (inactive); in the test on MOLT-4, 32.9 µM (inactive). In addition, the GI50 in the test with HL-60 was > 100 µM (inactive); with MDA-MB-231 it was 17 µM (inactive); in the test on EKVX, 22.2 µM (inactive); in the test on LOX IMVI, 20 µM (inactive); in the test with IGROV-1, 27.1 µM (inactive); in the test on A549, 23.4 µM (inactive). The GI50 in the test on UO-31 is 22.3 µM (inactive); in the test on CCRF-CEM it was > 53.8 µM (inactive).

In the case of `N#CC(CCN1CCC(Nc2ccccc2)(c2nnnn2C2CCCCC2)CC1)(c1ccccc1)c1ccccc1`, the GI50 in the test with 786-0, in the test on HCT-116, in the test with SW-620, in the test with SN12C, in the test with HT-29 and in the test on NCI-H522 was > 100 µM (inactive) throughout. Also, the GI50 is > 100 µM (inactive) in the test on ACHN; 58.2 µM (inactive) in the test with MCF7; > 100 µM (inactive) in the test on SF-268; > 100 µM (inactive) in the test on NCI/ADR-RES; > 100 µM (inactive) in the test with COLO 205; > 100 µM (inactive) in the test with MOLT-4. Also, the GI50 with HL-60, in the test on MDA-MB-231, with EKVX, in the test with LOX IMVI, with IGROV-1 and with A549 was > 100 µM (inactive) in each case. In addition, the GI50 in the test on UO-31 and in the test with CCRF-CEM was > 100 µM (inactive) each time.
